Source: patent publication US11524966B1 (Valo Early Discovery, Inc., priority 2017, dated 2022)
pIC50: −log10 of the molar value.

Target: T1, USP25 (USP25-His6, Boston Biochem E-546) (Homo sapiens, UniProt Q9UHP3)
T1 construct: His6; purchased Boston Biochem E-546
T1 sequence (Q9UHP3 1-1055): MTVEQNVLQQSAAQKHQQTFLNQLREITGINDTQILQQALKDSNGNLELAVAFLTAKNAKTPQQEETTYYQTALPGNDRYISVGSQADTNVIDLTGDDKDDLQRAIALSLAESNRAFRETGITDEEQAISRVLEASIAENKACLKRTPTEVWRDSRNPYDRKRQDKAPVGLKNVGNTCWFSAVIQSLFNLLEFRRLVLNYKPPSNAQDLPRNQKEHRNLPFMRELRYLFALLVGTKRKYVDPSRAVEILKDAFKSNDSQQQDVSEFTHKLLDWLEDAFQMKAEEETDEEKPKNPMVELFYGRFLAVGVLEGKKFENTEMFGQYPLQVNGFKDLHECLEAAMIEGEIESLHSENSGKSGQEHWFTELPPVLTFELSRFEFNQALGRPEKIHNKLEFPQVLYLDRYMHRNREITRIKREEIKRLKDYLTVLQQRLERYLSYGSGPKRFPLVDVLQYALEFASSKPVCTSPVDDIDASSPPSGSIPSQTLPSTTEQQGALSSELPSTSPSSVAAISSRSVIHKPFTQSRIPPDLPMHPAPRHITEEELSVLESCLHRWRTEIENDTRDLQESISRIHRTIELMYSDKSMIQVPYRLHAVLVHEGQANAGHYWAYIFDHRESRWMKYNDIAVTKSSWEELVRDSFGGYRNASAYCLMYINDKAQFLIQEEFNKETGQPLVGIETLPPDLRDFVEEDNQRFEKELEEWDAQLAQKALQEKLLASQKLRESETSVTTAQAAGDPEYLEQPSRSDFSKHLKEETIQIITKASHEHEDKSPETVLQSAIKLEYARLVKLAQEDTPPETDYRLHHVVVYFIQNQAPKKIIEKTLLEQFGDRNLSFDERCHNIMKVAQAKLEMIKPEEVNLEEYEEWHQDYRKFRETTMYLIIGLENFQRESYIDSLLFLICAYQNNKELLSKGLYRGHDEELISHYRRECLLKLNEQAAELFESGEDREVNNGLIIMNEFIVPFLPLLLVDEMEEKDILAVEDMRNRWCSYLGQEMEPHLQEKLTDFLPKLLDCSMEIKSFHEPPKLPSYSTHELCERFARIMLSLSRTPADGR
Assay: Ubiquitin-Rhodamine 110 Assay for USP25 Activity, Example A-2
Format: biochemical
Conditions: Ubiquitin-Rhodamine 110 assay, Example A-2; read-out: USP25 A-2 IC50 range
How it was run: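 Fluorescence (ex 485, em 535 nm) of cleaved ubiquitin-rhodamine 110 (25 nM, below Km) gave IC50 via 4-parameter logistic fit. Reaction: 45 min, room temperature, citric acid stop, after 30 min compound preincubation with 75 pM USP25-His6 in 20 mM Tris pH 8.0, 3 mM BME, 0.03% BGG, 0.01% Triton X-100; top dose 25 μM.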

Nc1c(C(=O)N[C@H]2COc3cc(N4CCNCC4)ccc3C2)sc2nc(C3CC3)sc12 [Example 45]
pIC50: 5.70 to 6.70

Cc1nc2sc(C(=O)N[C@@H]3COc4cc(N5CC6CCC(C5)N6)c(F)cc4C3)c(N)c2s1 [Example 46, N-((3S)-7-(3 8-diazabicyclo[3.2.1]octan-3-yl)-6-fluorochroman-3-yl)-6-amino-2-methylthieno[2,3-d]thiazole-5-carboxamide]
pIC50: 5.70 to 6.70

Cc1nc2sc(C(=O)N[C@H]3COc4cc(N5CC6CCC(C5)N6)c(F)cc4C3)c(N)c2s1 [Example 47, N-((3R)-7-(3,8-diazabicyclo[3.2.1]octan-3-yl)-6-fluorochroman-3-yl)-6-amino-2-methylthieno[2,3-d]thiazole-5-carboxamide]
pIC50: < 5.70

Cc1ccc2c(N)c(C(=O)N[C@H]3COc4cc(N5CCNCC5)cc(Cl)c4C3)sc2n1 [Example 48, (R)-3-amino-N-(5-chloro-7-(piperazin-1-yl)chroman-3-yl)-6-methylthieno[2,3-b]pyridine-2-carboxamide]
pIC50: 6.70 to 7.30

Cc1ccc2c(N)c(C(=O)N[C@@H]3COc4cc(N5CCNCC5)cc(Cl)c4C3)sc2n1 [Example 49, (S)-3-amino-N-(5-chloro-7-(piperazin-1-yl)chroman-3-yl)-6-methylthieno[2,3-b]pyridine-2-carboxamide]
pIC50: < 5.70

O=C(N[C@H]1COc2cc(N3CC4CCC(C3)N4)ccc2C1)c1cnc2c(c1)CCCN2 [Example 50, N-((3R)-7-(3,8-diazabicyclo[3.2.1]octan-3-yl)chroman-3-yl)-5,6,7,8-tetrahydro-1,8-naphthyridine-3-carboxamide]
pIC50: 5.70 to 6.70

O=C(N[C@H]1COc2cc(N3CC4CCC(C3)N4)ccc2C1)c1cnc2c(c1)CCCO2 [Example 51, N-((3R)-7-(3,8-diazabicyclo[3.2.1]octan-3-yl)chroman-3-yl)-3,4-dihydro-2H-pyrano[2,3-b]pyridine-6-carboxamide]
pIC50: < 5.70

O=C(N[C@H]1COc2cc(N3CCNCC3)ccc2C1)c1ccc(NCc2ccccc2)nc1 [Example 52, (R)-6-(benzylamino)-N-(7-(piperazin-1-yl)chroman-3-yl)nicotinamide]
pIC50: 5.70 to 6.70

C[C@H](Nc1ccc(C(=O)N[C@H]2COc3cc(N4CCNCC4)ccc3C2)cn1)c1ccccc1 [Example 53, 6-(((S)-1-phenylethyl)amino)-N-((R)-7-(piperazin-1-yl)chroman-3-yl)nicotinamide]
pIC50: < 5.70

C[C@@H](Nc1ccc(C(=O)N[C@H]2COc3cc(N4CCNCC4)ccc3C2)cn1)c1ccccc1 [Example 54, 6-(((R)-1-phenylethyl)amino)-N-((R)-7-(piperazin-1-yl)chroman-3-yl)nicotinamide]
pIC50: < 5.70

Cc1ccc2c(N)c(C(=O)N[C@H]3COc4c(F)c(N5CCNCC5)cc(F)c4C3)sc2n1 [Example 55, (R)-3-amino-N-(5,8-difluoro-7-(piperazin-1-yl)chroman-3-yl)-6-methylthieno[2,3-b]pyridine-2-carboxamide]
pIC50: 6.70 to 7.30

Cc1nc2sc(C(=O)N[C@H]3COc4c(F)c(N5CCNCC5)cc(F)c4C3)c(N)c2s1 [Example 56, (R)-6-amino-N-(5,8-difluoro-7-(piperazin-1-yl)chroman-3-yl)-2-methylthieno[2,3-d]thiazole-5-carboxamide]
pIC50: 5.70 to 6.70

O=C(N[C@H]1COc2cc(N3CCNCC3)ccc2C1)c1cnc2c(c1)CC[C@H]2O [Example 57, (R)-7-hydroxy-N-((R)-7-(piperazin-1-yl)chroman-3-yl)-6,7-dihydro-5H-cyclopenta[b]pyridine-3-carboxamide]
pIC50: < 5.70

O=C(N[C@H]1COc2cc(N3CCNCC3)ccc2C1)c1cnc2c(c1)CC[C@@H]2O [Example 58, (S)-7-hydroxy-N-((R )-7-(piperazin-1-yl)chroman-3-yl)-6,7-dihydro-5H-cyclopenta[b]pyridine-3-carboxamide]
pIC50: < 5.70

O=C(N[C@H]1COc2cc(N3CCNCC3)ccc2C1)c1cnc2c(ccn2Cc2ccccc2)c1 [Example 59, (R)-1-benzyl-N-(7-(piperazin-1-yl)chroman-3-yl)-1H-pyrrolo[2,3-b]pyridine-5-carboxamide]
pIC50: 7.30 to 9.00

Cc1cnc2c(N)c(C(=O)N[C@H]3COc4c(C#N)c(N5CCNCC5)cc(F)c4C3)sc2n1 [Example 60, (R)-7-amino-N-(8-cyano-5-fluoro-7-(piperazin-1-yl)chroman-3-yl)-3-methylthieno[2,3-b]pyrazine-6-carboxamide]
pIC50: 5.70 to 6.70

Cc1ccc2c(N)c(C(=O)N[C@H]3COc4cc(N5CCNCC5)c(F)c(F)c4C3)sc2n1 [Example 61, (R)-3-amino-N-(5,6-difluoro-7-(piperazin-1-yl)chroman-3-yl)-6-methylthieno[2,3-b]pyridine-2-carboxamide]
pIC50: 6.70 to 7.30

Cc1ccc2c(N)c(C(=O)N[C@H]3COc4cc([C@H]5CCNC[C@H]5O)ccc4C3)sc2n1 [Example 62, 3-amino-N-((R)-7-((3S,4R)-3-hydroxypiperidin-4-yl)chroman-3-yl)-6-methylthieno[2,3-b]pyridine-2-carboxamide]
pIC50: 7.30 to 9.00

Cc1ccc2c(N)c(C(=O)N[C@H]3COc4cc([C@@H]5CCNC[C@@H]5O)ccc4C3)sc2n1 [Example 63, 3-amino-N-((R)-7-((3R,4S)-3-hydroxypiperidin-4-yl)chroman-3-yl)-6-methylthieno[2,3-b]pyridine-2-carboxamide]
pIC50: 6.70 to 7.30

Cc1ccc2c(N)c(C(=O)N[C@H]3COc4cc([C@H]5CCNC[C@@H]5O)ccc4C3)sc2n1 [Example 64, 3-amino-N-((R)-7-((3R,4R)-3-hydroxypiperidin-4-yl)chroman-3-yl)-6-methylthieno[2,3-b]pyridine-2-carboxamide]
pIC50: 6.70 to 7.30

Cc1ccc2c(N)c(C(=O)N[C@H]3COc4cc([C@@H]5CCNC[C@H]5O)ccc4C3)sc2n1 [Example 65, 3-amino-N-((R)-7-((3S,4S)-3-hydroxypiperidin-4-yl)chroman-3-yl)-6-methylthieno[2,3-b]pyridine-2-carboxamide]
pIC50: 6.70 to 7.30

Cc1nc2sc(C(=O)N[C@H]3COc4cc(N5CCNCC5)c(F)c(F)c4C3)c(N)c2s1 [Example 66, (R)-6-amino-N-(5,6-difluoro-7-(piperazin-1-yl)chroman-3-yl)-2-methylthieno[2,3-d]thiazole-5-carboxamide]
pIC50: 5.70 to 6.70

Cc1cnc2c(N)c(C(=O)N[C@H]3COc4cc(N5CCNCC5)c(C#N)c(F)c4C3)sc2n1 [Example 67, (R)-7-amino-N-(6-cyano-5-fluoro-7-(piperazin-1-yl)chroman-3-yl)-3-methylthieno[2,3-b]pyrazine-6-carboxamide]
pIC50: 6.70 to 7.30

Cc1ccc2c(N)c(C(=O)N[C@H]3COc4c(F)c(N5CCNCC5)cc(F)c4C3)oc2n1 [Example 68, (R)-3-amino-N-(5,8-difluoro-7-(piperazin-1-yl)chroman-3-yl)-6-methylfuro[2,3-b]pyridine-2-carboxamide]
pIC50: < 5.70

Cc1ccc2c(N)c(C(=O)N[C@H]3COc4cc([C@H]5CCNCC5(F)F)ccc4C3)sc2n1 [Example 69, 3-amino-N-((R)-7-((R)-3,3-difluoropiperidin-4-yl)chroman-3-yl)-6-methylthieno[2,3-b]pyridine-2-carboxamide]
pIC50: 6.70 to 7.30

Cc1ccc2c(N)c(C(=O)N[C@H]3COc4cc([C@@H]5CCNCC5(F)F)ccc4C3)sc2n1 [Example 70, 3-amino-N-((R)-7-((S)-3,3-difluoropiperidin-4-yl)chroman-3-yl)-6-methylthieno[2,3-b]pyridine-2-carboxamide]
pIC50: 7.30 to 9.00

Cc1cnc2c(N)c(C(=O)N[C@H]3COc4cc(N5CCNCC5)ncc4C3)sc2n1 [Example 71, (R)-7-amino-3-methyl-N-(7-(piperazin-1-yl)-3,4-dihydro-2H-pyrano[3,2-c]pyridin-3-yl)thieno[2,3-b]pyrazine-6-carboxamide]
pIC50: 5.70 to 6.70

Cc1nc2sc(C(=O)N[C@H]3COc4cc(N5CCNCC5)ncc4C3)c(N)c2cc1F [Example 72, (R)-3-amino-5-fluoro-6-methyl-N-(7-(piperazin-1-yl)-3,4-dihydro-2H-pyrano[3,2-c]pyridin-3-yl)thieno[2,3-b]pyridine-2-carboxamide]
pIC50: 5.70 to 6.70

C[C@@H]1CCc2cc(C(=O)N[C@H]3COc4cc(N5CC6CCC(C5)N6)ccc4C3)cnc2N1 [Example 74, (7R)-N-((3R)-7-(3,8-diazabicyclo[3.2.1]octan-3-yl)chroman-3-yl)-7-methyl-5,6,7,8-tetrahydro-1,8-naphthyridine-3-carboxamide]
pIC50: 5.70 to 6.70
